Target: T1, human OGA (hOGA, O-GlcNAcase) (Homo sapiens, UniProt O60502)
T1 sequence (O60502 1-916): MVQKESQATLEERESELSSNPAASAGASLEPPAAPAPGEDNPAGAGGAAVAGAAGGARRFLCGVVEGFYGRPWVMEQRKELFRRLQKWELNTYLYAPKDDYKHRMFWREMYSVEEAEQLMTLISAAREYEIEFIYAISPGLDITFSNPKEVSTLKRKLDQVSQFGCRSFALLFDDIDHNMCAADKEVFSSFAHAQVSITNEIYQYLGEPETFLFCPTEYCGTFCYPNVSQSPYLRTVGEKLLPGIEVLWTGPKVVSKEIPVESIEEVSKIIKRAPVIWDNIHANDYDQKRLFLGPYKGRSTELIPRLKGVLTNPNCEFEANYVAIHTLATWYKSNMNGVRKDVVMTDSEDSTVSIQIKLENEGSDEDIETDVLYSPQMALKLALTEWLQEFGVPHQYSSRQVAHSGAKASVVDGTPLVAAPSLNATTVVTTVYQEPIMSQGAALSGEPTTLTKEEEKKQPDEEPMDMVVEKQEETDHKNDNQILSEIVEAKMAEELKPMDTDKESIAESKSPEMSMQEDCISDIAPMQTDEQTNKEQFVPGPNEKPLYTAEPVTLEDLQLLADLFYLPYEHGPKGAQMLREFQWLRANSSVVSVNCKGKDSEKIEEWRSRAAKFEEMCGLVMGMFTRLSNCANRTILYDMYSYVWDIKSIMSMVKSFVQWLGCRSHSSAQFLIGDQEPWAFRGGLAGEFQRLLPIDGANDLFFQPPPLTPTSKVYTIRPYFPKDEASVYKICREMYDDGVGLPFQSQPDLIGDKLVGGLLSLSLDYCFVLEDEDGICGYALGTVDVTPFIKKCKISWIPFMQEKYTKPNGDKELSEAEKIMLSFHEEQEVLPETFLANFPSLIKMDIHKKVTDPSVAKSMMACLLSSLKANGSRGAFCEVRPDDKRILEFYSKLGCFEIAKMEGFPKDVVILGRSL
Experiment: anti-O-GlcNAc immunoblot of treated HEK […] cells
Type: cell-based

Structure (SMILES): CC(C)C(=O)N[C@H]1c2nc(CCc3ccccc3)cn2[C@H](CO)[C@@H](O)[C@@H]1O [compound 1, GlcNAcstatin]
- anti-O-GlcNAc immunoblot of treated HEK 293 cells (qualitative): is active against human OGA (hOGA) in human cell lines

Reference: publication PMC7116141 (Journal of the American Chemical Society, 2006)
